Here are results for one compound from US20250353891A1 (MEDIMMUNE LIMITED, priority 2022, published 2025).

Usually share remaining stands for what is left of the initial amount, in per cent. Read a high share remaining as less turnover. By EC50 is commonly meant the concentration that produces a half-maximal response.

Data set [1] in a line: Proteolytic resistance to FasSSGF containing porcine pancreatic pepsin. Format: in vitro ADME. The note with it: pig, simulated gastric fluid. An outline of the steps: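 Peptide (250 μM stock in FasSSGF) mixed 1:1 with porcine pepsin stock (0.5 mg/mL in FasSSGF) and held at 37° C; samples at 0, 5, 10, 15 and 30 min quenched in ammonium bicarbonate, pH 8. Intact peptide remaining estimated by RP-HPLC peak area, UV 210 nm.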

Data set [2] in a line: Proteolytic resistance to FasSSIF/Pancreatin. It is filed as in vitro ADME. To be noted: simulated intestinal fluid. The method, boiled down:
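Peptide (1.0 mg) in pre-warmed FasSSIF, proteolysis started with fresh FasSSIF/USP Pancreatin and held at 37 °C. Aliquots at 0, 5, 10, 15, 30 min quenched in 10% TFA; remaining intact peptide estimated by RP-HPLC peak area, UV 210 nm.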

The next data set concerns wildtype (WT) mice. Kind of data set: Glucose change in wildtype mice. It is filed as in vivo, mouse. To be noted: s.c., 120 min vs 0 min, somatostatin pretreatment (octreotide) 30 min prior to cpd. An outline of the steps: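 Wildtype mice aged 8-14 weeks, fasted 2 h, sometimes pre-treated with octreotide 10 mg/kg 30 min before peptide injection. Blood glucose by glucometer at -30, 0, 30, 60, 120, 180, 240 and 360 min; n=4-8/group, mice reused up to 3 times with ≥1 week wash-out.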

In data set [3] the target is human glucagon receptor (hGCGR) (Homo sapiens, UniProt P47871). Kind of data set: cAMP production (HTRF) in CHO cells expressing hGCGR. Format: cell-based. Details: expressed in transfected cells. The note with it: Table 6, peptides modified at position 17; cAMP in CHO hGCGR cells; geometric mean; read-out: hGluc-R EC50. An outline of the steps:
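Cells were resuspended in assay buffer at batch-optimized density, typically 1×10^5 cells/mL for hGLP-1R and 2×10^5 cells/mL for hGCGR. After 30 min incubation at room temperature with compound, cAMP was measured by two-step HTRF. EC50 values came from 4-parameter logistic fits of % Delta F.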
Background: Cyclic AMP is a second messenger, typically raised through Gs and lowered through Gi signalling.

SMILES strings stand for the structures. Starred links: 1 amine or outer side, 2 acyl side, 3 side chain; linkers in the order of their positions; H or OH if unused. Non-standard residues stand in square brackets, D forms with d. Residues, ends and D or L forms follow the SMILES beside them. Groups on a side chain read outwards from the residue. *: point of attachment. C18 diacid = O=C(O)CCCCCCCCCCCCCCCCC(=O)*; γGlu = O=C(O)[C@H](CCC(=O)[*:2])N[*:1]; αMeF = C[C@](N)(Cc1ccccc1)C(=O)O; Aib = CC(C)(N)C(=O)O

Chain of human glucagon receptor (hGCGR) (P47871 26-477): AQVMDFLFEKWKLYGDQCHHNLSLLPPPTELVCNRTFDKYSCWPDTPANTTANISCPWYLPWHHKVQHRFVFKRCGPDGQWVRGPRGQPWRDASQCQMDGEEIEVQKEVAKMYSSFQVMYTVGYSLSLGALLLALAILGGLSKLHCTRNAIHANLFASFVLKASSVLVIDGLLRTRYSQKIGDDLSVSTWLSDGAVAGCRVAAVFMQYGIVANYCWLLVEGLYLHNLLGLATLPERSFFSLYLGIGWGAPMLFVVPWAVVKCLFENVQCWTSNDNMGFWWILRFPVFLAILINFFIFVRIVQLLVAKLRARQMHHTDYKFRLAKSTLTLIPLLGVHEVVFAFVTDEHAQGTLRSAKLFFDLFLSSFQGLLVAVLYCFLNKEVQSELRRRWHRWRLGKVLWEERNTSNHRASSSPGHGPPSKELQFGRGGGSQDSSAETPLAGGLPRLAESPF

In data set [1], `CC[C@H](C)[C@H](NC(=O)[C@H](Cc1c[nH]c2ccccc12)NC(=O)[C@H](CCC(=O)O)NC(=O)[C@@H](NC(=O)[C@](C)(Cc1ccccc1)NC(=O)[C@H](CC(=O)O)NC(=O)[C@H](CCC(N)=O)NC(=O)[C@H](C)NC(=O)[C@H](C)NC(=O)[C@H](CCCCNC(=O)CC[C@H](NC(=O)CCCCCCCCCCCCCCCCC(=O)O)C(=O)O)NC(=O)[C@H](CO)NC(=O)[C@H](CC(=O)O)NC(=O)[C@H](CC(C)C)NC(=O)[C@](C)(Cc1ccccc1)NC(=O)[C@H](CCCCN)NC(=O)[C@H](CO)NC(=O)[C@@H](NC(=O)[C@H](CC(=O)O)NC(=O)[C@H](CO)NC(=O)[C@@H](NC(=O)[C@](C)(Cc1ccccc1)NC(=O)[C@H](CO)NC(=O)CNC(=O)[C@H](Cc1c[nH]cn1)NC(=O)C(C)(C)NC(=O)[C@@H](N)Cc1c[nH]cn1)[C@@H](C)O)C(C)C)C(C)C)C(=O)N[C@@H](C)C(=O)N[C@@H](CC(N)=O)C(=O)N[C@H](C(N)=O)[C@@H](C)O` [Peptide 7] (H-H[Aib]HGS[αMeF]TSDVSK[αMeF]LDSK([γGlu-C18 diacid])AAQD[αMeF]VEWIANT-NH2; N-terminus assumed) displayed a share remaining at 5 min, 125 µM of 81%; a fraction remaining at 0.25 h, 125 µM of 35%; a share remaining at 0.5 h, 125 µM of 18%. Also, in data set [2], the amount remaining at 5 min, 3.3 mg/mL is 96%; the fraction remaining at 10 min, 3.3 mg/mL was 98%; the fraction remaining at 0.25 h, 3.3 mg/mL is 96%; the fraction remaining at 0.5 h, 3.3 mg/mL is 94%. Moreover, the “WT % glucose change 120 min” value in the data set with wildtype (WT) mice (1.5 nmol/kg) came out at 5.4%. Moreover, the “WT % glucose change 120 min” value with wildtype (WT) mice (5 nmol/kg) was −21.2%. For the same compound, in data set [3], the EC50 was 0.0307 nM.
